From PubChem BioAssay (NCI)
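Five concentrations, 48 hours, 96-well plates. The concentration for 50% growth inhibition is given as GI50. At the TGI there is no net growth.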

These compounds were tested on 786-0 renal (assay: NCI anticancer screen, dose series, 48 h).

**Q.** `C=C1c2cc3c(cc2CC12Cc1cc4c(cc1C2=O)CCC4)CCC3` (configuration not stated) was tested. Which TGI did it give?
**A.** > 100 µM

**Q.** Which TGI does the source give for `NNC1=N/C(=C\c2ccco2)C(Cl)=N1` here?
**A.** > 100 µM

**Q.** How did the TGI turn out when `CC1=C2C(=C[C@H]3[C@]4(C)CCCC(C)(C)[C@H]4CC[C@]34O[C@H]24)OC1=O` was run?
**A.** > 100 µM

**Q.** Which results are given for `COc1cc2c(Nc3cc(Cl)c(OC)c(Cl)c3)c(C#N)cnc2cc1OCCCN1CCN(C)CC1`?
**A.** GI50: 1.73 µM; TGI: 4.54 µM

**Q.** How did the TGI turn out when `COC(=O)C1C(O)C(C(=O)OC)C(C)N(C)C1C` (configuration not stated) was run?
**A.** > 100 µM

**Q.** With `CCOC(=O)c1c(-c2ccccc2)c(-c2ccccc2)cn1C` as the compound, how does the TGI read?
**A.** > 10 µM

Each compound was assayed on A498 renal (assay: NCI anticancer screen, dose series, 48 h).

**Q.** Which TGI does the source give for `C=C1c2cc3c(cc2CC12Cc1cc4c(cc1C2=O)CCC4)CCC3` (configuration not stated) here?
**A.** > 100 µM

**Q.** With `NNC1=N/C(=C\c2ccco2)C(Cl)=N1` as the compound, how does the TGI read?
**A.** > 100 µM

**Q.** How did the TGI turn out when `CC1=C2C(=C[C@H]3[C@]4(C)CCCC(C)(C)[C@H]4CC[C@]34O[C@H]24)OC1=O` was run?
**A.** > 100 µM

**Q.** `COc1cc2c(Nc3cc(Cl)c(OC)c(Cl)c3)c(C#N)cnc2cc1OCCCN1CCN(C)CC1` was tested. Which GI50 did it give?
**A.** 0.904 µM

**Q.** And the TGI?
**A.** 2.61 µM

**Q.** How did the TGI turn out when `COC(=O)C1C(O)C(C(=O)OC)C(C)N(C)C1C` (configuration not stated) was run?
**A.** > 100 µM

**Q.** `c1ccc2c(c1)c1c(n2CCOCCN2CCOCC2)CCCC1` was tested. Which TGI did it give?
**A.** 98.9 µM

These compounds were tested on A549 NSCLC (assay: NCI anticancer screen, dose series, 48 h).

**Q.** How did the TGI turn out when `C=C1c2cc3c(cc2CC12Cc1cc4c(cc1C2=O)CCC4)CCC3` (configuration not stated) was run?
**A.** > 100 µM

**Q.** How did the TGI turn out when `NNC1=N/C(=C\c2ccco2)C(Cl)=N1` was run?
**A.** > 100 µM

**Q.** For `CC1=C2C(=C[C@H]3[C@]4(C)CCCC(C)(C)[C@H]4CC[C@]34O[C@H]24)OC1=O`, which TGI is on record?
**A.** > 100 µM

**Q.** With `COc1cc2c(Nc3cc(Cl)c(OC)c(Cl)c3)c(C#N)cnc2cc1OCCCN1CCN(C)CC1` as the compound, how does the GI50 read?
**A.** 1.5 µM

**Q.** And the TGI?
**A.** 4.12 µM

**Q.** `COC(=O)C1C(O)C(C(=O)OC)C(C)N(C)C1C` (configuration not stated) was tested. Which TGI did it give?
**A.** > 100 µM

**Q.** `c1ccc2c(c1)c1c(n2CCOCCN2CCOCC2)CCCC1` was tested. Which TGI did it give?
**A.** > 100 µM

**Q.** For `CCOC(=O)c1c(-c2ccccc2)c(-c2ccccc2)cn1C`, which TGI is on record?
**A.** > 10 µM

The compounds below were run on ACHN renal (assay: NCI anticancer screen, dose series, 48 h).

**Q.** How did the TGI turn out when `C=C1c2cc3c(cc2CC12Cc1cc4c(cc1C2=O)CCC4)CCC3` (configuration not stated) was run?
**A.** > 100 µM

**Q.** For `NNC1=N/C(=C\c2ccco2)C(Cl)=N1`, which TGI is on record?
**A.** > 100 µM

**Q.** `CC1=C2C(=C[C@H]3[C@]4(C)CCCC(C)(C)[C@H]4CC[C@]34O[C@H]24)OC1=O` was tested. Which TGI did it give?
**A.** > 100 µM

**Q.** Which results are given for `COc1cc2c(Nc3cc(Cl)c(OC)c(Cl)c3)c(C#N)cnc2cc1OCCCN1CCN(C)CC1`?
**A.** GI50: 0.239 µM; TGI: 3.58 µM

**Q.** Which TGI does the source give for `COC(=O)C1C(O)C(C(=O)OC)C(C)N(C)C1C` (configuration not stated) here?
**A.** > 100 µM

**Q.** With `c1ccc2c(c1)c1c(n2CCOCCN2CCOCC2)CCCC1` as the compound, how does the TGI read?
**A.** > 100 µM

**Q.** With `CCOC(=O)c1c(-c2ccccc2)c(-c2ccccc2)cn1C` as the compound, how does the TGI read?
**A.** > 10 µM

Each compound was assayed on BT-549 breast (assay: NCI anticancer screen, dose series, 48 h).

**Q.** With `CC1=C2C(=C[C@H]3[C@]4(C)CCCC(C)(C)[C@H]4CC[C@]34O[C@H]24)OC1=O` as the compound, how does the TGI read?
**A.** > 100 µM

**Q.** Which results are given for `COc1cc2c(Nc3cc(Cl)c(OC)c(Cl)c3)c(C#N)cnc2cc1OCCCN1CCN(C)CC1`?
**A.** GI50: 3.83 µM; TGI: 13.8 µM

**Q.** `COC(=O)C1C(O)C(C(=O)OC)C(C)N(C)C1C` (configuration not stated) was tested. Which TGI did it give?
**A.** > 100 µM

**Q.** Which TGI does the source give for `CCOC(=O)c1c(-c2ccccc2)c(-c2ccccc2)cn1C` here?
**A.** > 10 µM

What follows are compounds tested on CAKI-1 renal (assay: NCI anticancer screen, dose series, 48 h).

**Q.** How did the TGI turn out when `C=C1c2cc3c(cc2CC12Cc1cc4c(cc1C2=O)CCC4)CCC3` (configuration not stated) was run?
**A.** > 100 µM

**Q.** Which TGI does the source give for `NNC1=N/C(=C\c2ccco2)C(Cl)=N1` here?
**A.** > 100 µM

**Q.** Which GI50 does the source give for `COc1cc2c(Nc3cc(Cl)c(OC)c(Cl)c3)c(C#N)cnc2cc1OCCCN1CCN(C)CC1` here?
**A.** 0.606 µM

**Q.** And the TGI?
**A.** 15.1 µM

**Q.** How did the TGI turn out when `COC(=O)C1C(O)C(C(=O)OC)C(C)N(C)C1C` (configuration not stated) was run?
**A.** > 100 µM

**Q.** With `c1ccc2c(c1)c1c(n2CCOCCN2CCOCC2)CCCC1` as the compound, how does the TGI read?
**A.** > 100 µM

These compounds were tested on CCRF-CEM leukemia (assay: NCI anticancer screen, dose series, 48 h).

**Q.** For `C=C1c2cc3c(cc2CC12Cc1cc4c(cc1C2=O)CCC4)CCC3` (configuration not stated), which TGI is on record?
**A.** > 100 µM

**Q.** Which TGI does the source give for `NNC1=N/C(=C\c2ccco2)C(Cl)=N1` here?
**A.** > 100 µM

**Q.** Which GI50 does the source give for `COc1cc2c(Nc3cc(Cl)c(OC)c(Cl)c3)c(C#N)cnc2cc1OCCCN1CCN(C)CC1` here?
**A.** 2.04 µM

**Q.** And the TGI?
**A.** 10.8 µM

**Q.** `COC(=O)C1C(O)C(C(=O)OC)C(C)N(C)C1C` (configuration not stated) was tested. Which TGI did it give?
**A.** > 100 µM

**Q.** How did the TGI turn out when `c1ccc2c(c1)c1c(n2CCOCCN2CCOCC2)CCCC1` was run?
**A.** 69.4 µM

**Q.** Which TGI does the source give for `CCOC(=O)c1c(-c2ccccc2)c(-c2ccccc2)cn1C` here?
**A.** > 10 µM

The compounds below were run on COLO 205 colon (assay: NCI anticancer screen, dose series, 48 h).

**Q.** How did the TGI turn out when `NNC1=N/C(=C\c2ccco2)C(Cl)=N1` was run?
**A.** > 100 µM

**Q.** For `CC1=C2C(=C[C@H]3[C@]4(C)CCCC(C)(C)[C@H]4CC[C@]34O[C@H]24)OC1=O`, which TGI is on record?
**A.** > 100 µM

**Q.** `COc1cc2c(Nc3cc(Cl)c(OC)c(Cl)c3)c(C#N)cnc2cc1OCCCN1CCN(C)CC1` was tested. Which GI50 did it give?
**A.** 2.02 µM

**Q.** And the TGI?
**A.** 3.79 µM
